Results on 7 compounds are retold here after ChEMBL document CHEMBL1136661, “Interfacial peptide inhibitors of HIV-1 integrase activity and dimerization” (Bioorg Med Chem Lett, 2003).

Bounds are passed on as bounds.

Sequence of Human immunodeficiency virus type 1 integrase (Q7ZJM1 whole entry): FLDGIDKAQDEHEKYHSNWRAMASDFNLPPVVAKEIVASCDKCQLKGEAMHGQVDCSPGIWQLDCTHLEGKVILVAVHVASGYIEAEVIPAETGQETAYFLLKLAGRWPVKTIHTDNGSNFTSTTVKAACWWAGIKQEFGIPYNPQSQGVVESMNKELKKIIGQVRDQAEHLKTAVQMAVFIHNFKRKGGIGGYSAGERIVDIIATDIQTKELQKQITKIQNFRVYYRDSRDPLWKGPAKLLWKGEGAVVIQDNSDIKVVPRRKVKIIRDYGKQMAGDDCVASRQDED

The experiment has as its target Human immunodeficiency virus type 1 integrase (Human immunodeficiency virus 1, UniProt Q7ZJM1). Nature of the experiment: Inhibitory activity of compound against HIV-1 integrase.
One may read the IC50 as the concentration at which inhibition is half-maximal. Take `CC[C@@H](C)[C@H](NC(=O)[C@H](CCCNC(=N)N)NC(=O)[C@H](CCC(=O)O)NC(=O)CNC(=O)[C@H](C)N)C(=O)N[C@H](C(=O)N[C@@H](CC(=O)O)C(=O)N[C@H](C(=O)N[C@H](C(=O)N[C@@H](C)C(N)=O)[C@@H](C)CC)[C@@H](C)CC)C(C)C`: half-maximal inhibition (IC50) required 30 µM.
The value for H-AGERIVDIIATDIQ-NH2 was 2 µM.
Next, H-GYIEAEVI-NH2: > 1000 µM; H-HLKTAVQMAVFIHNFKR-NH2: 3 µM.
The value for H-QETAYFLLKLAGR-NH2 was 150 µM; that for H-QETAYFLLKLAGRWP-NH2 was 35 µM; that for H-STTVKAASWWA-NH2 was > 1000 µM.
